Here are results for 20 molecules from ChEMBL document CHEMBL5113432, “Discovery of novel indole and indoline derivatives against Candida albicans as potent antifungal agents” (Bioorg Med Chem Lett, 2022).

The structures appear in SMILES notation. Calls of active or inactive are those of the source. No cut-off for these calls is given here.

In data set [1] the test system is Candida albicans. The data set is described as follows: Antifungal activity against fluconazole-resistant Candida albicans ATCC10231FR assessed as inhibition of fungal growth by microdilution method. The format is functional, organism-based. On the technique in general: Broth dilution looks for growth in wells or tubes with falling amounts of substance.
The test system of data set [2] is Candida albicans. The data set is described as follows: Antifungal activity against fluconazole-resistant Candida albicans SC5314FR assessed as inhibition of fungal growth by microdilution method. The data set is classed as functional, organism-based.
The subject of data set [3] is Candida albicans. The data set is described as follows: Antifungal activity against clinical strain Candida albicans CA23 assessed as inhibition of fungal growth by microdilution method. The data set is classed as functional, organism-based.
Data set [4] deals with Candida albicans. The data set is described as follows: Antifungal activity against fluconazole-sensitive Candida albicans ATCC10231 assessed as inhibition of fungal growth by microdilution method. The format is functional, organism-based.
The subject of data set [5] is Candida albicans. Put plainly: Antifungal activity against clinical strain Candida albicans CA187 assessed as inhibition of fungal growth by microdilution method. The data set is classed as functional, organism-based.
Data set [6] deals with Candida albicans. The data set is described as follows: Antifungal activity against clinical strain Candida albicans CA4574 assessed as inhibition of fungal growth by microdilution method. The format is functional, organism-based.
Data set [7] relates to Candida albicans. The data set is described as follows: Antifungal activity against clinical strain Candida albicans CA808 assessed as inhibition of fungal growth by microdilution method. The data set is classed as functional, organism-based.
Data set [8] concerns Candida albicans. The data set is described as follows: Antifungal activity against fluconazole-sensitive Candida albicans SC5314 assessed as inhibition of fungal growth by microdilution method. The data set is classed as functional, organism-based.
Data set [9] relates to Candida albicans. The data set is described as follows: Antifungal activity against Candida albicans assessed as inhibition of hyphae formation in Spider medium at 18 to 72 ug/ml and measured for 4 to 8 hrs by scanning electron microscopy. The format is functional, organism-based. The note with it: dose 18-72 µg/ml, time 4-8 hrs, TDE = time-dependent effect.
Data set [10] has as its system Candida albicans. The data set is described as follows: Antifungal activity against Candida albicans assessed as inhibition of fungal growth at 18 to 72 ug/ml and measured upto 96 hrs by microdilution method. The format is functional, organism-based. The note with it: dose 18-72 µg/ml, DDE = dose-dependent effect.
Data set [11] deals with Candida albicans. The data set is described as follows: Antifungal activity against Candida albicans assessed as downregulation of ECE1 by RT-PCR analysis. The data set is classed as functional, organism-based.
In data set [12] the test system is Candida albicans. The data set is described as follows: Antifungal activity against Candida albicans assessed as downregulation of EFG1 by RT-PCR analysis. The format is functional, organism-based.
Data set [13] relates to Candida albicans. Put plainly: Antifungal activity against Candida albicans assessed as downregulation of RAS1 by RT-PCR analysis. The format is functional, organism-based.
For data set [14], the system named is Candida albicans. Put plainly: Antifungal activity against Candida albicans assessed as inhibition of hyphae formation in Spider medium at 18 to 72 ug/ml and measured upto 8 hrs by scanning electron microscopy. The format is functional, organism-based. The note with it: dose 18-72 µg/ml, DDE = dose-dependent effect.
In data set [15] the test system is Candida albicans. The data set is described as follows: Antifungal activity against Candida albicans assessed as decrease in filamentous hyphae length in Spider medium at 36 to 72 ug/ml by scanning electron microscopy. The note with it: dose 36-72 µg/ml. The format is functional, organism-based.
Data set [16] deals with Candida albicans. Put plainly: Antifungal activity against Candida albicans assessed as inhibition of fungal growth at 18 to 72 ug/ml and measured 4 to 96 hrs by microdilution method. The data set is classed as functional, organism-based. To be noted: dose 18-72 µg/ml, time 4-96 hrs, TDE = time-dependent effect.
The test system of data set [17] is Candida albicans. Put plainly: Antifungal activity against Candida albicans assessed as downregulation of CYR1 by RT-PCR analysis. The format is functional, organism-based.
Data set [18] relates to Candida albicans. The data set is described as follows: Antifungal activity against Candida albicans assessed as downregulation of ALS3 by RT-PCR analysis. The format is functional, organism-based.
The subject of data set [19] is Candida albicans. The data set is described as follows: Antifungal activity against Candida albicans assessed as inhibition of biofilm formation at 18 to 72 ug/ml incubated for 24 hrs by crystal violet staining based method. The data set is classed as functional, organism-based. To be noted: dose 18-72 µg/ml.
The subject of data set [20] is Candida albicans. Put plainly: Antifungal activity against Candida albicans assessed as downregulation of HWP1 by RT-PCR analysis. The data set is classed as functional, organism-based.
Data set [21] can be described thus: Cytotoxicity against human 16HBE14o- assessed as inhibition of cell growth incubated for 24 hrs. The data set is classed as toxicity, cell-based. To be noted: 16HBE14o- cells.

In general, IC50 refers to the concentration that inhibits the measured activity by half. Regarding `O=C(CCn1ccc2ccccc21)NCCNS(=O)(=O)c1ccc(OCc2ccccc2)cc1O`, the IC50 in the data set on Candida albicans [1] was above 200 µg/mL.

In the case of `O=C(CCn1ccc2ccccc21)NCC/N=C/c1ccc(F)c(C(F)(F)F)c1`, the IC50 in the data set on Candida albicans [1] was above 200 µg/mL.

As for `O=C(CCn1ccc2ccccc21)NCCNS(=O)(=O)c1cc(Cl)c(F)cc1F`, the half-maximal inhibitory concentration (IC50) in the data set on Candida albicans [1] was above 200 µg/mL.

Regarding `O=C(CCn1ccc2ccccc21)NCCNS(=O)(=O)c1cc([N+](=O)[O-])ccc1O`, the IC50 with Candida albicans [1] was above 200 µg/mL.

As for `COc1ccc(O)c(/C=N/CCNC(=O)CCn2ccc3ccccc32)c1`, the concentration for half-maximal inhibition (IC50) with Candida albicans [1] was above 200 µg/mL.

Consider `O=C(CCn1ccc2ccccc21)NCCNS(=O)(=O)c1ccc(Br)cc1`, for which the 50% inhibitory concentration (IC50) in the data set with Candida albicans [1] was above 200 µg/mL.

For the molecule `O=C(CCn1ccc2ccccc21)NCCNS(=O)(=O)c1cc(Br)ccc1O`, the IC50 in the data set with Candida albicans [1] was above 200 µg/mL.

As to `Cc1ccc(S(=O)(=O)NCCNC(=O)CCn2ccc3ccccc32)cc1`, the IC50 in the data set on Candida albicans [1] is above 200 µg/mL.

With `O=C(CCn1ccc2ccccc21)NCCNS(=O)(=O)c1cc(Cl)cc(Br)c1O`, in the data set on Candida albicans [1], the IC50 was above 200 µg/mL.

In the case of `O=C(CCn1ccc2ccccc21)NCC/N=C/c1ccc(OCc2ccccc2)cc1O`, in the data set with Candida albicans [1], the IC50 was found to be 18 µg/mL.

For the molecule `O=C(CCn1ccc2ccccc21)NCC/N=C/c1ccc(Cl)c(C(F)(F)F)c1`, the half-maximal inhibitory concentration (IC50) in the data set on Candida albicans [1] came out at 24 µg/mL.

`COc1cc(O)c(/C=N/CCNC(=O)CCn2ccc3ccccc32)c(OC)c1`: the IC50 with Candida albicans [1] is 86 µg/mL.

As to `O=C(CCn1ccc2ccccc21)NCC/N=C/c1cc(Cl)c(F)cc1F`, the concentration for half-maximal inhibition (IC50) in the data set on Candida albicans [1] is above 200 µg/mL.

Regarding `O=C(CCn1ccc2ccccc21)NCCNS(=O)(=O)c1ccc(OC(F)(F)F)cc1`, the IC50 with Candida albicans [1] was above 200 µg/mL.

With `OC(Cn1cncn1)(Cn1cncn1)c1ccc(F)cc1F` [FLUCONAZOLE], the IC50 was above 200 µg/mL in the data set with Candida albicans [1]; above 200 µg/mL in the data set with Candida albicans [2]; above 200 µg/mL with Candida albicans [3]; 10 µg/mL in the data set with Candida albicans [4]; above 200 µg/mL in the data set on Candida albicans [5]; 1.2 µg/mL in the data set with Candida albicans [6]. The IC50 was above 200 µg/mL in the data set with Candida albicans [7] and 1.3 µg/mL in the data set on Candida albicans [8].

As for `O=C(CCn1ccc2ccccc21)NCC/N=C/c1ccc(OC(F)(F)F)cc1`, the IC50 in the data set on Candida albicans [1] turned out to be 29 µg/mL.

Take `O=C(CCn1ccc2ccccc21)NCC/N=C/c1ccc(Br)cc1`: in the data set with Candida albicans [1], the IC50 was above 200 µg/mL.

Regarding `CCN(CC)c1ccc(S(=O)(=O)NCCNC(=O)CCn2ccc3ccccc32)c(O)c1`, in the data set on Candida albicans [1], the IC50 was above 200 µg/mL.

A word on the CC50: it is the concentration giving 50% cytotoxicity. As for `CCN(CC)c1ccc(/C=N/CCNC(=O)CCn2ccc3ccccc32)c(O)c1`, the inhibition entry is “Tde” with Candida albicans [9], “Dde” with Candida albicans [10], “Dde” with Candida albicans [14] and “Tde” in the data set with Candida albicans [16]. For the same molecule, the IC50 in the data set with Candida albicans [1] turned out to be 21 µg/mL; in the data set with Candida albicans [2], 75 µg/mL; with Candida albicans [3] it was 20 µg/mL; in the data set with Candida albicans [4] it was 19 µg/mL; in the data set on Candida albicans [5], 39 µg/mL; with Candida albicans [6], 74 µg/mL. In addition, the IC50 in the data set on Candida albicans [7] is 78 µg/mL; in the data set with Candida albicans [8], 22 µg/mL. In addition, the outcome in the data set with Candida albicans [11], in the data set with Candida albicans [12], in the data set with Candida albicans [13], in the data set with Candida albicans [15], in the data set on Candida albicans [17] and with Candida albicans [18] was Active. The outcome in the data set with Candida albicans [20] was Active. The inhibition result in the data set with Candida albicans [19] was “Active”. Besides, the CC50 at 24 h in [21] was above 200 µg/mL.

Take `O=C(CCn1ccc2ccccc21)NCCNS(=O)(=O)c1ccc(F)c(C(F)(F)F)c1`: the IC50 in the data set on Candida albicans [1] was above 200 µg/mL.
